Experimental data reported in publication PMC5345905 (Journal of the American Chemical Society, 2017).

System: Bacillus subtilis 168
Assay: minimal inhibitory concentration
Type: cell-based
Details: purified unique compounds, quantitative MIC

thiocillin [WT]
MIC: 0.5 µg/mL
